Paper PMC6151437, “Antibacterial Synthetic Peptides Derived from Bovine Lactoferricin Exhibit Cytotoxic Effect against MDA-MB-468 and MDA-MB-231 Breast Cancer Cell Lines” (Molecules : A Journal of Synthetic Chemistry and Natural …, 2017)
Like-named read-outs stand apart in the source and are kept apart here. Bridge positions count the residues as written; N and C are the ends. Square brackets hold non-standard residues; d marks the D form. Ends that are not written are not given here. Peptide text beside a SMILES is read from it. I, II: the chains in the order shown. Ahx = NCCCCCC(=O)O

How the values were obtained:
E. coli ATCC 11775 = assay type: cell-based
Procedure: (§1) The minimal inhibitory concentration (MIC) was determined using a microdilution assay. In brief, bacterial strains were incubated for 18 to 24 h at 37 °C in an Muller Hinton broth (MHB) until an optical density of 0.15 to 0.30 (620 nm) was obtained. 90 µL of MHB was mixed with 90 µL of peptide (440 µg/mL), and using a 96-well microtiter plate peptide, serial dilution (200, 100, 50, 25, 12.5, and 6.2 µg/mL) was performed. 10 µL of inoculum (2 × 10^6 CFU/mL) was added to each well. Final volume in each well was 100 µL. Then they were incubated for 24 h at 37 °C, and the absorbance at 620 nm was measured using an Asys Expert Plus ELISA reader. For determining the minimum bactericidal concentration (MBC), a small sample was taken from each well using an inoculation loop, which was then spread on MHA plates and incubated overnight at 37 °C. […] Each of these tests was performed twice (n = 2).

E. coli ATCC 25922 = assay type: cell-based
Procedure: as §1

[1] = assay type: cell-based, human; conditions: human
Procedure: (§2) Cytotoxicity assays were performed as previously described. Briefly, breast cancer cell lines (100 µL; 2.5 × 10^3 cells/well) were seeded in 96-well flat bottom tissue culture treated plates and were incubated at 37 °C in a 10% CO2 humidified atmosphere for 24 h, allowing for cell adhesion. Then the media was removed, then 100 µL of FBS (5%) and 100 µL of peptide were added. The peptide final concentration was ranging from 200 to 6.25 µg/mL and the final FBS concentration was 2.5%. Plates were incubated 2 h at 37 °C in a 10% CO2 humidified atmosphere (physiologic pH). Negative controls included medium and water. All controls were prepared in triplicate. Cell viability was determined using the MTT assay after 2 h. For this, 10 µL of MTT solution (5 mg/mL) was added to each well, and the plates were incubated for 2 h at 37 °C. Formazan crystals were clarified by centrifugation, the supernatant was discarded, and the crystals were dissolved in DMSO (100 µL). Absorbance (570 nm) was registered on a Bio-Rad 680 microplate reader. (n = 3).

[2] = assay type: cell-based, human; conditions: human; remark: listed apart in the source
Procedure: as §2

[3] = test system: human gastric cancer cell line AGS; conditions: cited from earlier work
[4] = E. coli ATCC 25922, microdilution in MHB, 24 h at 37 °C, absorbance 620 nm, n = 2
[5] = E. coli ATCC 11775, microdilution in MHB, 24 h at 37 °C, absorbance 620 nm, n = 2
[6] = E. coli ATCC 11775, plated on MHA overnight at 37 °C, no bacterial growth, n = 2
[7] = E. coli ATCC 25922, plated on MHA overnight at 37 °C, no bacterial growth, n = 2

Antibacterial Effect MIC (E. coli ATCC 11775; ATCC 11775, 24 h) | Antibacterial Effect MIC (E. coli ATCC 25922; ATCC 25922, 24 h) | IC50 at 2 h [1] [µM] | IC50 at 2 h [2] [µM] | Antibacterial Effect MIC (E. coli ATCC 11775; E. coli ATCC 11775, value in parentheses, microdilution in MHB, 24 h at 37 °C, n = 2) [µM] | Antibacterial Effect MIC (E. coli ATCC 25922; [4]) [µg/mL] | Molecule | Antibacterial Effect MBC (E. coli ATCC 11775; ATCC 11775) | Antibacterial Effect MBC (E. coli ATCC 25922; ATCC 25922) | Antibacterial Effect MBC (E. coli ATCC 11775; E. coli ATCC 11775, value in parentheses, plated on MHA overnight at 37 °C, n = 2) [µM] | Antibacterial Effect MBC (E. coli ATCC 25922; E. coli ATCC 25922, value in parentheses, plated on MHA overnight at 37 °C, n = 2) [µM] | Antibacterial Effect MIC (E. coli ATCC 11775; [5]) [µg/mL] | Antibacterial Effect MBC (E. coli ATCC 11775; [6]) [µg/mL] | Antibacterial Effect MBC (E. coli ATCC 25922; [7]) [µg/mL] | IC50 [3] [µM]
200 µg/mL | 200 µg/mL | – | – | – | – | CSCC[C@@H]1NC(=O)[C@H](CCCNC(=N)N)NC(=O)[C@H](Cc2c[nH]c3ccccc23)NC(=O)[C@H](CCC(N)=O)NC(=O)[C@H](Cc2c[nH]c3ccccc23)NC(=O)[C@H](CCCNC(=N)N)NC(=O)[C@H](CCCNC(=N)N)NC(=O)[C@@H](N)CSSC[C@@H](C(N)=O)NC(=O)CCCCCNC(=O)CNC(=O)[C@H](CC(C)C)NC(=O)[C@H](CCCCN)NC(=O)[C@H](CCCCN)NC1=O [LfcinB (20–30)cyc] (H-CRRWQWRMKKLG[Ahx]C-NH2; disulfide 1-14) | 200 µg/mL | 200 µg/mL | – | – | – | – | – | –
> 102 µM | 102 µM | > 102 | > 102 | – | – | CSCC[C@H](NC(=O)[C@H](CCCNC(=N)N)NC(=O)[C@H](Cc1c[nH]c2ccccc12)NC(=O)[C@H](CCC(N)=O)NC(=O)[C@H](Cc1c[nH]c2ccccc12)NC(=O)[C@H](CCCNC(=N)N)NC(=O)[C@H](CCCNC(=N)N)NC(=O)[C@H](C)NC(=O)[C@H](CCCCN)NC(=O)[C@@H](N)Cc1ccccc1)C(=O)N[C@@H](CCCCN)C(=O)N[C@@H](CCCCN)C(=O)N[C@@H](CC(C)C)C(=O)NCC(=O)N[C@@H](C)C(=O)O [[Ala^19]-LfcinB (17–31)] | 102 µM | 102 µM | – | – | – | – | – | –
– | 77 µM | – | – | 153 | 100 | N=C(N)NCCC[C@@H]1NC(=O)[C@H](Cc2c[nH]c3ccccc23)NC(=O)[C@H](CCC(N)=O)NC(=O)[C@H](Cc2c[nH]c3ccccc23)NC(=O)[C@H](CCCNC(=N)N)NC(=O)[C@H](CCCNC(=N)N)NC(=O)[C@@H](N)CSSC[C@@H](C(N)=O)NC(=O)CCCCCNC1=O [LfcinB (20–25)cyc] (H-CRRWQWR[Ahx]C-NH2; disulfide 1-9) | – | – | 153 | > 153 | – | – | – | –
> 48 µM | 24 µM | – | – | – | 100 | CSCC[C@H](NC(=O)[C@H](CCCNC(=N)N)NC(=O)[C@H](Cc1c[nH]c2ccccc12)NC(=O)[C@H](CCC(N)=O)NC(=O)[C@H](Cc1c[nH]c2ccccc12)NC(=O)[C@H](CCCNC(=N)N)NC(=O)[C@H](CCCNC(=N)N)NC(=O)[C@H](C)NC(=O)[C@H](CCCCN)NC(=O)[C@@H](N)Cc1ccccc1)C(=O)N[C@@H](CCCCN)C(=O)N[C@@H](CCCCN)C(=O)N[C@@H](CC(C)C)C(=O)NCC(=O)N[C@@H](C)C(=O)NCCCC[C@H](NC(=O)[C@H](C)NC(=O)CNC(=O)[C@H](CC(C)C)NC(=O)[C@H](CCCCN)NC(=O)[C@H](CCCCN)NC(=O)[C@H](CCSC)NC(=O)[C@H](CCCNC(=N)N)NC(=O)[C@H](Cc1c[nH]c2ccccc12)NC(=O)[C@H](CCC(N)=O)NC(=O)[C@H](Cc1c[nH]c2ccccc12)NC(=O)[C@H](CCCNC(=N)N)NC(=O)[C@H](CCCNC(=N)N)NC(=O)[C@H](C)NC(=O)[C@H](CCCCN)NC(=O)[C@@H](N)Cc1ccccc1)C(=O)NCCCCCC(N)=O [[Ala^19]-LfcinB (17–31)2] (I: H-FKARRWQWRMKKLGAK[Ahx]-NH2 / II: H-FKARRWQWRMKKLGA; amide I:16-II:C) | > 48 µM | 24 µM | – | – | > 200 | > 200 | 100 | –
> 88 µM | 88 µM | > 88 | > 88 | – | 200 | CSCC[C@@H]1NC(=O)[C@H](CCCNC(=N)N)NC(=O)[C@H](Cc2c[nH]c3ccccc23)NC(=O)[C@H](CCC(N)=O)NC(=O)[C@H](Cc2c[nH]c3ccccc23)NC(=O)[C@H](CCCNC(=N)N)NC(=O)[C@H](CCCNC(=N)N)NC(=O)[C@H](C)NC(=O)[C@H](CCCCN)NC(=O)[C@H](Cc2ccccc2)NC(=O)[C@@H](N)CSSC[C@@H](C(N)=O)NC(=O)CCCCCNC(=O)[C@H](C)NC(=O)CNC(=O)[C@H](CC(C)C)NC(=O)[C@H](CCCCN)NC(=O)[C@H](CCCCN)NC1=O [[Ala^19]-LfcinB (17–31)cyc] (H-CFKARRWQWRMKKLGA[Ahx]C-NH2; disulfide 1-18) | > 88 µM | 88 µM | – | – | > 200 | > 200 | 200 | –
130 µM | 130 µM | > 130 | > 130 | – | – | RRWQWRMKKLG-NH2 [LfcinB (20–30)] | 130 µM | 130 µM | – | – | – | – | – | > 500

Molecule | Antibacterial Effect MIC (E. coli ATCC 11775; ATCC 11775, 24 h) | Antibacterial Effect MIC (E. coli ATCC 25922; ATCC 25922, 24 h) | IC50 at 2 h [1] [µM] | IC50 at 2 h [2] [µM] | Antibacterial Effect MIC (E. coli ATCC 11775; E. coli ATCC 11775, value in parentheses, microdilution in MHB, 24 h at 37 °C, n = 2) [µM] | Antibacterial Effect MIC (E. coli ATCC 25922; [4]) [µg/mL] | Antibacterial Effect MBC (E. coli ATCC 11775; ATCC 11775) | Antibacterial Effect MBC (E. coli ATCC 25922; ATCC 25922) | Antibacterial Effect MBC (E. coli ATCC 11775; E. coli ATCC 11775, value in parentheses, plated on MHA overnight at 37 °C, n = 2) [µM] | Antibacterial Effect MBC (E. coli ATCC 25922; E. coli ATCC 25922, value in parentheses, plated on MHA overnight at 37 °C, n = 2) [µM] | Antibacterial Effect MIC (E. coli ATCC 11775; [5]) [µg/mL] | Antibacterial Effect MBC (E. coli ATCC 11775; [6]) [µg/mL] | Antibacterial Effect MBC (E. coli ATCC 25922; [7]) [µg/mL] | IC50 [3] [µM]
CSCC[C@H](NC(=O)[C@H](CCCNC(=N)N)NC(=O)[C@H](Cc1c[nH]c2ccccc12)NC(=O)[C@H](CCC(N)=O)NC(=O)[C@H](Cc1c[nH]c2ccccc12)NC(=O)[C@H](CCCNC(=N)N)NC(=O)[C@@H](N)CCCNC(=N)N)C(=O)N[C@@H](CCCCN)C(=O)N[C@@H](CCCCN)C(=O)N[C@@H](CC(C)C)C(=O)NCC(=O)NCCCC[C@H](NC(=O)CNC(=O)[C@H](CC(C)C)NC(=O)[C@H](CCCCN)NC(=O)[C@H](CCCCN)NC(=O)[C@H](CCSC)NC(=O)[C@H](CCCNC(=N)N)NC(=O)[C@H](Cc1c[nH]c2ccccc12)NC(=O)[C@H](CCC(N)=O)NC(=O)[C@H](Cc1c[nH]c2ccccc12)NC(=O)[C@H](CCCNC(=N)N)NC(=O)[C@@H](N)CCCNC(=N)N)C(=O)NCCCCCC(N)=O [LfcinB (20–30)2] (I: H-RRWQWRMKKLGK[Ahx]-NH2 / II: H-RRWQWRMKKLG; amide I:12-II:C) | 60 µM | 30 µM | – | – | – | 100 | 60 µM | 60 µM | – | – | 200 | 200 | 200 | –
I: H-RRWQWRMKKLGK[Ahx]C-NH2 / II: H-RRWQWRMKKLGK[Ahx]C-NH2 / III: H-RRWQWRMKKLG / IV: H-RRWQWRMKKLG (amide I:12-III:C, II:12-IV:C; disulfide I:14-II:14) [LfcinB (20–30)4] | 15 µM | 15 µM | – | – | – | 200 | 15 µM | 15 µM | – | – | 200 | 200 | 200 | –
